{"source": "patent US20030124084A1", "about": "“Use of dehydroepiandrosterone and/or precursors or derivatives thereof to improve papery aspect of the skin” (priority 2000, published 2003)", "format_in_all_cases": "in vivo, human", "key": {"skin of the face [1]": {"tested_on": "skin of the face", "assay": "Elasticity of the skin by Dermal Torque Meter", "experimental": "(§1) This test was performed simultaneously with the one described in example 2, by applying the same products, onto the same groups of individuals, and under the same conditions, except that the products were applied to the skin of the face.\nThe elasticity of the skin was assessed, at the start of the test and after four months, using the apparatus available under the tradename Dermal Torque Meter® from DTM® Dia-Stron Limited, Andover, Hampshire, United Kingdom. This apparatus makes it possible to study the response of the skin to a deformation applied in the direction parallel to its surface, as described in Escoffier C et al., Age-Related Mechanical Properties of Human Skin: an in Vivo Study, J. Invest. Dermatol., 1989, 93:353-357.\n(§2) The statistical analysis was performed by Wilcoxon tests."}, "skin of the face [2]": {"tested_on": "skin of the face", "assay": "Clinical scores of texture and flaccidness of the skin of the face", "experimental": "as §1\nThe texture of the skin and the flaccidness were assessed under blind conditions by the same clinician and are represented by clinical scores ranging from 0 (unpronounced or relatively unpronounced parameter) to 9 (very pronounced parameter).\nas §2"}, "[3]": {"tested_on": "weathered appearance of the skin", "assay": "Clinical score of the weathered appearance of the skin, back of the hand, treated hand vs control hand", "experimental": "A gelled oil-in-water emulsion containing 1% by weight of DHEA as sole active agent was tested in comparison with a vehicle consisting of an identical emulsion but not containing DHEA.\nThe products were tested on a group of forty women aged from 55 to 70. Half of the individuals applied the vehicle and the other half applied the DHEA-based emulsion, the choice of the individuals being made according to a computer-generated randomization. The emulsion was applied in the morning and in the evening for four months to the back of only one hand, the other hand serving as a control. The amounts applied were controlled by weighing the tubes at the start and end of the test.\nThe weathered appearance is assessed clinically under blind conditions on the back of each hand, at the start of the test and after four months, by the same clinician. The weathered appearance is represented by a clinical score ranging from 0 (weathered appearance absent or relatively unpronounced) to 9 (very pronounced weathered appearance).\nThe statistical analysis is performed by Wilcoxon tests."}, "[4]": {"conditions": "four months vs placebo, Wilcoxon test"}, "[5]": {"conditions": "after four months, 1% DHEA emulsion topical on face, score 0 to 9"}, "[6]": {"conditions": "start of test, face, score 0 to 9"}}}
{"smiles": "C[C@]12CC[C@H](O)CC1=CC[C@@H]1[C@@H]2CC[C@]2(C)C(=O)CC[C@@H]12", "note": "[DHEA, dehydroepiandrosterone]", "values": [{"measurement": "Elasticity, T4", "setting": "skin of the face [1]; after four months, 1% DHEA emulsion topical on face, Dermal Torque Meter", "value": 0.66}, {"measurement": "effect of topical application on elasticity of the skin", "setting": "skin of the face [1]; [4]", "value": "does not significantly modify"}, {"measurement": "Elasticity, T0", "setting": "skin of the face [1]; start of test, face, Dermal Torque Meter", "value": 0.77}, {"measurement": "Flaccidness clinical score, T4", "setting": "skin of the face [2]; [5]", "value": 4.15}, {"measurement": "Texture clinical score, T4", "setting": "skin of the face [2]; [5]", "value": 3.8}, {"measurement": "effect of topical application on flaccidness of the skin", "setting": "skin of the face [2]; [4]", "value": "does not significantly modify"}, {"measurement": "effect of topical application on texture of the skin", "setting": "skin of the face [2]; [4]", "value": "does not significantly modify"}, {"measurement": "Flaccidness clinical score, T0", "setting": "skin of the face [2]; [6]", "value": 4.45}, {"measurement": "Texture clinical score, T0", "setting": "skin of the face [2]; [6]", "value": 4}, {"measurement": "score for the weathered appearance on the treated hand vs control hand", "setting": "[3]; after four months, 1% DHEA emulsion topical morning and evening on back of one hand, score 0 to 9, significant at p=0.05", "value": "lower"}, {"measurement": "difference in scores of the weathered appearance between the two hands", "setting": "[3]; initial time (To), clinical score 0 to 9, women aged 55 to 70", "value": "virtually nonexistent"}]}
